pKi: −log10 of the molar value.
Experiments:
[1] = target: T1, Melatonin receptor type 1B (Homo sapiens, UniProt P49286); assay: Inhibition of 2-[125I]iodomelatonin binding to human Melatonin receptor type 1B expressed in HEK293 cells; assay type: cell-based
T1 sequence (P49286 whole entry): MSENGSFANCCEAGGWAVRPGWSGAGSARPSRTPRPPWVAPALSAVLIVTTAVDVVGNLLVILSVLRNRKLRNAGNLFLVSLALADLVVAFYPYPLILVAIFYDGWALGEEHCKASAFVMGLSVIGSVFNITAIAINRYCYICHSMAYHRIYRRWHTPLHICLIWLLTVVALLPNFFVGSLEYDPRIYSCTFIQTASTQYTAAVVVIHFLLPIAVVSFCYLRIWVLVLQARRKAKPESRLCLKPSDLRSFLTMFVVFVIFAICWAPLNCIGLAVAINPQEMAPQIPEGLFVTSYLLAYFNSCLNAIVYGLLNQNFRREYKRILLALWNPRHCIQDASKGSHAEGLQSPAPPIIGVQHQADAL

[2] = target: Melatonin receptor type 1A (Homo sapiens, UniProt P48039); assay: Inhibition of 2-[125I]iodomelatonin binding to human Melatonin receptor type 1A expressed in HEK293 cells; assay type: cell-based
Sequence of Melatonin receptor type 1A (P48039 whole entry): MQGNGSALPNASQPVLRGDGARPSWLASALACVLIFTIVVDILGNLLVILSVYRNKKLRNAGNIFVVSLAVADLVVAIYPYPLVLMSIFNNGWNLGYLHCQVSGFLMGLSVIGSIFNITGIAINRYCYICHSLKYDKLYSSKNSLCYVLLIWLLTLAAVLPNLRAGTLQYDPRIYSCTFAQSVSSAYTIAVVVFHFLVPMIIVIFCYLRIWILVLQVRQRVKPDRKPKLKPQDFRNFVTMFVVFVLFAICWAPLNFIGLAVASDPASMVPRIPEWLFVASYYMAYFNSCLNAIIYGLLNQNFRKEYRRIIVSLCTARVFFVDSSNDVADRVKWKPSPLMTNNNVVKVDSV

[3] = organism: Homo sapiens; assay: Selectivity ratio of binding affinity at MT2 receptor relative to MT3 receptor
[4] = organism: Homo sapiens; assay: Selectivity ratio of binding affinity at MT1 receptor relative to MT3 receptor

SMILES	pKi [1]	pKi [2]	Selectivity [3]	Selectivity [4]
COc1ccc2[nH]cc(CCNC(C)=O)c2c1[N+](=O)[O-]	6.09	5.97	745	964
COc1ccc2[nH]c(I)c(CCNC(C)=O)c2c1[N+](=O)[O-]	7.63	7.72		
COc1cc([N+](=O)[O-])c2[nH]cc(CCNC(C)=O)c2c1	7.54	7.31		
COc1ccc2c(c(CCNC(C)=O)c(I)n2C)c1[N+](=O)[O-]	7.41	5.73		
COc1cc2c(CCNC(C)=O)c[nH]c2cc1[N+](=O)[O-]	8.28	7.84		
COc1ccc2c(c(CCNC(C)=O)cn2C)c1[N+](=O)[O-]	6.71	5.07	625	27600

Now those with a higher pKi [2], led by results:

pKi [1]	pKi [2]	Selectivity [3]	Selectivity [4]	SMILES
10.33	10.10			COc1ccc2c(c1)c(CCNC(C)=O)c(I)n2C
9.11	8.96			COc1cc2c(CCNC(C)=O)c(I)n(C)c2cc1[N+](=O)[O-]
8.51	8.59	1.1	0.929	COc1ccc2c(c1)c(CCNC(C)=O)cn2C
	9.52			COc1cc2c(CCNC(C)=O)c(I)[nH]c2cc1[N+](=O)[O-]
